From ChEMBL document CHEMBL1201862, “PubChem BioAssay data set” (2004)
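All cell lines were grown in 96-well plates and treated with compound for 48 hours. GI50: concentration for 50% inhibition of growth.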 Active and inactive are the calls of the source. No stated cut-off is given here; in the data, active = GI50 up to about 1.1 µM and inactive = higher.

Columns and labels:
Test in all cases: NCI anticancer screen, dose series, 48 h
[1] = test system: NCI-H522
[2] = test system: DU-145
[3] = test system: MDA-MB-435
[4] = test system: SN12C
[5] = test system: SNB-75
[6] = test system: SR
[7] = test system: COLO 205
[8] = test system: MCF7
[9] = test system: EKVX
[10] = test system: Hs-578T
[11] = test system: Malme-3M
[12] = test system: OVCAR-8
[13] = test system: 786-0
[14] = test system: UO-31
[15] = test system: LOX IMVI
[16] = test system: SF-539
[17] = test system: SF-295
[18] = test system: TK-10
[19] = test system: SK-OV-3
[20] = test system: K562

Measured: GI50

N#Cc1c(Nc2nc3ccccc3s2)c2ccccc2n2c1nc1ccccc12
inactive: [1] > 100 µM | [2] > 100 µM | [3] > 100 µM | [4] > 100 µM | [5] 24.5 µM | [6] > 100 µM | [7] > 100 µM | [8] > 100 µM | [9] > 100 µM | [10] 45.5 µM | [11] > 100 µM | [12] > 100 µM | [13] 29 µM | [14] > 100 µM | [15] > 100 µM | [16] > 100 µM | [17] 82 µM | [18] > 100 µM

CCC12CCCN(Cc3ccccc3)C1c1c([nH]c3ccccc13)C(C(=O)OC)C2 (stereo not given)
inactive: [1] > 10 µM | [2] > 10 µM | [3] > 10 µM | [4] > 10 µM | [5] > 10 µM | [6] 7.64 µM | [7] > 10 µM | [8] > 10 µM | [10] > 10 µM | [11] > 10 µM | [12] > 10 µM | [19] > 10 µM | [13] > 10 µM | [15] > 10 µM | [16] > 10 µM | [20] > 10 µM | [17] > 10 µM | [18] > 10 µM

Nc1ccc(Oc2ccc(C3(c4ccc(Oc5ccc(N)cc5)cc4)C4CC5CC(C4)CC3C5)cc2)cc1
inactive: [1] 11 µM | [2] 6.64 µM | [3] 8.05 µM | [4] 6.28 µM | [5] 54 µM | [6] 3.42 µM | [7] 3.72 µM | [8] 3.55 µM | [9] 9.53 µM | [10] > 22.1 µM | [11] 23.7 µM | [12] 9.18 µM | [13] 4.57 µM | [14] 3.01 µM | [15] 7.31 µM | [16] 10.9 µM | [20] 3.89 µM | [17] 6.76 µM | [18] 22.8 µM

CN(/N=C/c1cccc2cccnc12)c1ccc(Cl)cc1[N+](=O)[O-]
inactive: [1] > 100 µM | [2] > 100 µM | [3] > 100 µM | [4] > 100 µM | [5] > 100 µM | [6] > 100 µM | [7] > 100 µM | [8] 31.6 µM | [9] > 100 µM | [10] 81.5 µM | [11] > 100 µM | [12] > 100 µM | [19] > 100 µM | [13] > 100 µM | [14] > 100 µM | [16] > 100 µM | [20] > 100 µM | [17] > 100 µM | [18] > 100 µM

O=C(Nc1nncs1)NS(=O)(=O)n1cnc2ccccc21
inactive: [1] > 100 µM | [2] > 100 µM | [3] > 100 µM | [4] > 100 µM | [5] > 100 µM | [6] > 100 µM | [7] > 100 µM | [8] > 10 µM | [9] > 100 µM | [10] > 100 µM | [11] > 100 µM | [12] > 100 µM | [19] > 100 µM | [13] > 100 µM | [16] > 100 µM | [17] > 100 µM | [18] > 100 µM

CN(C)CCNS(=O)(=O)c1ccc(N)cc1
inactive: [1] > 100 µM | [2] > 100 µM | [3] > 100 µM | [4] > 100 µM | [5] > 100 µM | [6] > 100 µM | [7] > 100 µM | [8] > 100 µM | [9] > 100 µM | [10] > 100 µM | [11] > 100 µM | [12] > 100 µM | [19] > 100 µM | [13] > 100 µM | [14] > 100 µM | [16] > 100 µM | [20] > 100 µM | [17] > 100 µM | [18] > 100 µM

CCc1cccc(C(C)C)c1NC(=O)C(=O)C1C(=O)Nc2ccccc2[S+]1[O-] (stereo not given)
inactive: [1] > 100 µM | [2] > 100 µM | [3] > 100 µM | [4] > 100 µM | [5] > 100 µM | [6] > 100 µM | [7] > 100 µM | [8] > 100 µM | [9] 57.8 µM | [10] > 100 µM | [11] > 100 µM | [12] > 100 µM | [19] > 100 µM | [13] > 100 µM | [14] > 100 µM | [15] > 100 µM | [16] > 100 µM | [17] > 100 µM | [18] > 100 µM

COC12C=CC(CC1)C(C)(C)C2=O (stereo not given)
inactive: [1] > 100 µM | [2] > 100 µM | [3] > 100 µM | [4] > 100 µM | [5] > 100 µM | [6] > 100 µM | [7] > 100 µM | [8] > 100 µM | [9] > 100 µM | [10] > 100 µM | [11] > 100 µM | [12] > 100 µM | [19] > 100 µM | [13] > 100 µM | [14] > 100 µM | [16] > 100 µM | [20] > 100 µM | [17] > 100 µM | [18] > 100 µM

CC(=O)Nc1ccc(C(=O)NN2C(=O)C(Cl)C2c2cc(Br)ccc2O)cc1 (stereo not given)
inactive: [1] 6.55 µM | [2] 6.14 µM | [3] 7.69 µM | [4] 8.71 µM | [5] 44.4 µM | [6] 3.45 µM | [7] 36.1 µM | [8] 3.84 µM | [9] 28.8 µM | [10] 66.1 µM | [11] 5.55 µM | [12] 6.52 µM | [19] 4.42 µM | [13] 3.54 µM | [14] 3.72 µM | [16] 4.19 µM | [20] 6.41 µM | [17] 3.66 µM | [18] 36.1 µM

Cc1cccc2c1c(=O)c1c(O)c3c(cc1n2C)OC(C)(C)C=C3
inactive: [1] > 10 µM | [2] > 10 µM | [3] > 10 µM | [4] > 10 µM | [5] > 10 µM | [6] 9.53 µM | [7] > 10 µM | [8] 6.15 µM | [9] > 10 µM | [10] > 10 µM | [11] > 10 µM | [12] > 10 µM | [19] > 10 µM | [13] > 10 µM | [15] > 10 µM | [16] > 10 µM | [20] > 10 µM | [17] > 10 µM | [18] > 10 µM

NCC(=O)N1CCN(c2nc(N3CCCC3)c3nc(Cl)c(NCc4ccccc4)nc3n2)CC1
inactive: [1] 1.78 µM | [2] 2.41 µM | [3] 1.85 µM | [4] 1.85 µM | [5] 1.57 µM | [6] 1.56 µM | [7] 1.7 µM | [8] 1.83 µM | [9] 1.87 µM | [10] 2.12 µM | [11] 2.15 µM | [12] 1.77 µM | [19] 1.81 µM | [13] 1.69 µM | [14] 1.66 µM | [15] 1.78 µM | [16] 1.99 µM | [17] 1.86 µM | [18] 1.9 µM
